Data from patent publication US20210323950A1, “HERBICIDALLY ACTIVE BICYCLIC BENZOYLPYRAZOLES” (Bayer Aktiengesellschaft, priority 2018, published 2021).

Tests used:
Format in all cases: in vivo
Details in all cases: 320 g/ha, scored visually after about 3 weeks vs untreated controls
Viola tricolor (VIOTR) = assay: Pre-emergence herbicidal action against VIOTR
Source text: (§1) VIOTR: Viola tricolor 1. Pre-Emergence Herbicidal Action and Crop Plant Compatibility Seeds of monocotyledonous and dicotyledonous weed plants and crop plants are placed in plastic or organic planting pots and covered with soil. The compounds of the invention, formulated in the form of wettable powders (WP) or as emulsion concentrates (EC), are then applied onto the surface of the covering soil as aqueous suspension or emulsion with addition of 0.5% additive at a water application rate of […] (converted). After the treatment, the pots are placed in a greenhouse and kept under good growth conditions for the trial plants. After about 3 weeks, the effect of the preparations is scored visually in comparison with untreated controls as percentages. The tables below show the herbicidal activity of numerous compounds according to the invention against important harmful plants. For example, 100% activity=the plants have died, 0% activity=like control plants.

Stellaria media (STEME) = assay: Pre-emergence herbicidal action against STEME
Outline: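 Weed seeds are sown in pots under soil, and WP or EC formulations are applied pre-emergence to the soil surface as an aqueous suspension or emulsion with 0.5% additive. After about 3 weeks in the greenhouse, effect is scored visually as % versus untreated controls (100% = plants dead, 0% = like control).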

Veronica persica (VERPE) = assay: Pre-emergence herbicidal action against VERPE
Source text: as §1, with “VERPE: Veronica persica” for “VIOTR: Viola tricolor”

Setaria viridis (SETVI) = assay: Pre-emergence herbicidal action against SETVI
Source text: as §1, with “SETVI: Setaria viridis” for “VIOTR: Viola tricolor”

[1] = tested on: Abutilon theophrasti (ABUTH); assay: Pre-emergence herbicidal action against ABUTH
Source text: as §1, with “ABUTH: Abutilon theophrasti” for “VIOTR: Viola tricolor”

[2] = tested on: Cyperus esculentus (CYPES); assay: Pre-emergence herbicidal action against CYPES
Source text: as §1, with “CYPES: Cyperus esculentus” for “VIOTR: Viola tricolor”

[3] = tested on: Amaranthus retroflexus (AMARE); assay: Pre-emergence herbicidal action against AMARE
Outline: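 Formulated compounds (WP or EC) sprayed onto soil covering sown seeds, with 0.5% additive at […] water (converted). Greenhouse-grown about 3 weeks, then damage scored visually as percent versus untreated controls (100% = dead, 0% = like control).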

[4] = tested on: Echinochloa crus-galli (ECHCG); assay: Pre-emergence herbicidal action against ECHCG
Source text: as §1, with “ECHCG: Echinochloa crus-galli” for “VIOTR: Viola tricolor”

## Cn1ncc(C(=O)c2ccc(C(F)(F)F)c3c2OCS3(=O)=O)c1O [Example 1-43]
Viola tricolor (VIOTR)
  Pre-emergence action against VIOTR: 100%
Stellaria media (STEME)
  Pre-emergence action against STEME: 90%
Veronica persica (VERPE)
  Pre-emergence action against VERPE: 100%
Setaria viridis (SETVI)
  Pre-emergence action against SETVI: 100%
[1]
  Pre-emergence action against ABUTH: 90%
[2]
  Pre-emergence action against CYPES: 100%
[3]
  Pre-emergence action against AMARE: 100%
[4]
  Pre-emergence action against ECHCG: 100%
